{
  "source": "paper PMC7248098",
  "about": "“Biochemical characterization and inhibition of the alternative oxidase enzyme from the fungal phytopathogen Moniliophthora perniciosa” (Communications Biology, 2020)",
  "key": {"membrane-bound rMpAOX [1]": {"biological_target": "T1, membrane-bound rMpAOX (Moniliophthora perniciosa, UniProt A8QJP8)", "T1 sequence (A8QJP8 entry or part of it)": "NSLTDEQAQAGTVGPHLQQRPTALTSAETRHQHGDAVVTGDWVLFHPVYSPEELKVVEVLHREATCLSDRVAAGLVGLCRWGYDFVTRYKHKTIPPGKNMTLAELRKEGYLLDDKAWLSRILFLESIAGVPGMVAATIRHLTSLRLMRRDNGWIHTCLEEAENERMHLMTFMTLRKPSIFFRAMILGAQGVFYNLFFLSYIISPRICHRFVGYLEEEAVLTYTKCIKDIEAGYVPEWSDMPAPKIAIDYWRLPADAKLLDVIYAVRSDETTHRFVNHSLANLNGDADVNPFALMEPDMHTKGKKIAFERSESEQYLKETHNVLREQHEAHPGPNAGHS", "assay": "Dose-response assay of inhibitors with membrane-bound, GMP-activated rMpAOX (NADH oxidation)", "format": "biochemical", "conditions": "for Fractional velocity, %: log[I]", "protocol": "(§1) E. coli membrane preparation was performed as described with minor modifications. […] The cells were disrupted using two passes at […] through a pre-cooled Constant cell disruption system (Constant Systems Ltd). The lysate was centrifuged for 15 min at 16,000 rcf, and the pelleted unbroken cells and large cell debris were discarded. The supernatant was centrifuged for 90 min at 200,000 rcf to collect the fragmented membranes.\n(§2) Respiration rates were recorded before and after the addition of putative AOX activators, such as 5′-ADP, 5′-AMP, 5′-GDP, 5′-GMP, glyoxylate, oxaloacetate, pyruvate or succinate (1 mM each unless stated otherwise). […] Data were acquired with the Multiskan FC Microplate Photometer (ThermoFisher). […] Absorbance readings were taken periodically and a blank reactions (substrate without enzyme) were included in every assay and were used to determine and subtract the autoxidation rate (background). Proteoliposomes were assayed as described for the E. coli membrane fraction except that no KCN was included and 0.5 µL of the prep (~50 ng rMpAOX) were added into the reaction. When tested, inhibitors were preincubated with the enzyme in reaction buffer for 2–5 min before starting the reaction by the addition of substrate. The path length (i.e., the height of the reaction medium inside the well) was calculated based on the reaction volume and the well cross-section area informed by the supplier. GraphPad Prism 7.0 (GraphPad Software Inc.) was used for function fitting."}, "membrane-bound TAO [2]": {"system": "membrane-bound TAO", "assay": "Inhibition of membrane-bound TAO (literature)", "format": "biochemical, Trypanosoma brucei", "conditions": "from literature IC50 values"}, "membrane-bound TAO [3]": {"system": "membrane-bound TAO", "design": "method as in PMID 23180806", "conditions": "cited from earlier work"}, "membrane-bound rMpAOX [4]": {"biological_target": "T1, membrane-bound rMpAOX", "assay": "Membrane-bound rMpAOX activity with putative activators (O2 uptake, oxygraph; dose-response)", "format": "biochemical", "protocol": "as §1, §2"}, "purified rMpAOX": {"biological_target": "purified rMpAOX (Moniliophthora perniciosa, UniProt A8QJP8)", "sequence (A8QJP8 entry or part of it)": "as above", "assay": "Purified (detergent-solubilised) rMpAOX, Q1H2 oxidation", "format": "biochemical", "conditions": "GMP up to 0.5 mM, purified rMpAOX", "protocol": "The E. coli membrane fraction was resuspended with 50 mM Tris-HCl pH 7.5, 20% glycerol, 200 mM MgSO4 and 1% Fos-Choline-12 (FC-12) instead of MOPS buffer. The sample was left under gentle rocking for 1 h at 4 °C, after which it was centrifuged at 200,000 rcf for 30 min. […] T. Elthon, Nebraska, USA. Protein content was estimated through the Bradford method[63] and bovine serum albumin as standard.\nas §2"}, "[5]": {"biological_target": "rMpAOX incorporated into proteoliposomes (Moniliophthora perniciosa, UniProt A8QJP8)", "sequence (A8QJP8 entry or part of it)": "as above", "assay": "rMpAOX incorporated into proteoliposomes with Q10 and NDH-2 (NADH oxidation)", "format": "biochemical", "conditions": "PL system", "protocol": "Proteoliposomes (PL) were prepared as previously described[44],[45], except that NDH-2 was used instead of complex I and 0.5% DDM was used instead of OG. […] For kinetic studies, PLs were prepared with 50 µg rMpAOX and no NDH-2—in this case, pure NDH-2 was added directly into the enzymatic reaction mixture at a saturating concentration. Briefly, lipids and Q10 stocks in chloroform were mixed in a glass vial and the chloroform dried under a nitrogen stream. The lipids were hydrated and extruded through a 100 nm NanoSizer MINI Liposome Extruder (T&T Scientific) followed by the addition of protein. After treatment with the Bio-Beads SM-2 Resin (Bio-Rad), proteolipososmes were harvested by ultracentrifugation and resuspended in 150 µL of buffer. Enzymatic assays were performed on the same day.\nas §2"}, "[6]": {"system": "WBD (witches' broom disease of cocoa, M. perniciosa)", "design": "method as in PMID 30350447", "conditions": "200 µM, in the absence of a main respiration inhibitor; cited from earlier work"}},
  "note": "Values joined by “and” are separate entries in the source; they are usually repeats but may differ in a detail not shown here. Equal values may be shown once.",
  "data": [
    {"smiles": "CC(/C=C/[C@@]1(C)[C@H](C)CCC(=O)[C@@H]1C)=C\\Cc1c(O)c(Cl)c(C)c(C=O)c1O", "note": "[AC, ascochlorin]", "values": [
      {"measurement": "IC50", "setting": "membrane-bound rMpAOX [1]", "value": 5.25, "unit": "µM"},
      {"measurement": "Fractional velocity, %", "setting": "membrane-bound rMpAOX [1]; M -5.60206 (Fig2b), 2.5 µM", "value": "73.3239% and 61.6121%"},
      {"measurement": "Fractional velocity, %", "setting": "membrane-bound rMpAOX [1]; M -6.60206 (Fig2b), 0.25 µM", "value": "96.489% and 80.5494%"},
      {"measurement": "Fractional velocity, %", "setting": "membrane-bound rMpAOX [1]; M -7.60206 (Fig2b), 0.025 µM", "value": "98.3896% and 89.3939%"},
      {"measurement": "Fractional velocity, %", "setting": "membrane-bound rMpAOX [1]; M -8.60206 (Fig2b), 0.0025 µM", "value": "99.2565% and 89.0077%"},
      {"measurement": "Fractional velocity, %", "setting": "membrane-bound rMpAOX [1]; M -9.60206 (Fig2b), 0.00025 µM", "value": "97.0686% and 90.2842%"},
      {"measurement": "Fractional velocity, %", "setting": "membrane-bound rMpAOX [1]; M -10.6021 (Fig2b), 25 pM", "value": "95.0559% and 89.2874%"},
      {"measurement": "activity at 2.5 µM", "setting": "membrane-bound rMpAOX [1]; read-out: Fractional velocity, %, log[I], M -5.60206 (Fig2b)", "value": 60.8, "unit": "%"},
      {"measurement": "activity at 0.25 µM", "setting": "membrane-bound rMpAOX [1]; read-out: Fractional velocity, %, log[I], M -6.60206 (Fig2b)", "value": 92.8, "unit": "%"},
      {"measurement": "activity at 0.025 µM", "setting": "membrane-bound rMpAOX [1]; read-out: Fractional velocity, %, log[I], M -7.60206 (Fig2b)", "value": 98.2, "unit": "%"},
      {"measurement": "activity at 0.0025 µM", "setting": "membrane-bound rMpAOX [1]; read-out: Fractional velocity, %, log[I], M -8.60206 (Fig2b)", "value": 97.9, "unit": "%"},
      {"measurement": "activity at 0.00025 µM", "setting": "membrane-bound rMpAOX [1]; read-out: Fractional velocity, %, log[I], M -9.60206 (Fig2b)", "value": 95.5, "unit": "%"},
      {"measurement": "activity at 25 pM", "setting": "membrane-bound rMpAOX [1]; read-out: Fractional velocity, %, log[I], M -10.6021 (Fig2b)", "value": 93.4, "unit": "%"},
      {"measurement": "Ratio of AC IC50 to CB IC50 (TAO)", "setting": "membrane-bound TAO [2]", "value": 7.5},
      {"measurement": "IC50", "setting": "membrane-bound TAO [3]", "value": 0.0015, "unit": "µM"}
    ]},
    {"smiles": "Nc1nc2c(ncn2[C@@H]2O[C@H](COP(=O)(O)O)[C@@H](O)[C@H]2O)c(=O)[nH]1", "note": "[GMP, 5′-GMP]", "values": [
      {"measurement": "Maximum membrane-bound rMpAOX oxygen uptake", "setting": "membrane-bound rMpAOX [4]; 1 mM GMP", "value": "0.67 µmol O2 min^−1 mg total protein^−1"},
      {"measurement": "Maximum membrane-bound rMpAOX oxygen uptake per mg AOX", "setting": "membrane-bound rMpAOX [4]; 1 mM GMP", "value": 5, "unit": "µmol O2 min^−1 mg AOX^−1"},
      {"measurement": "Increase of membrane-bound rMpAOX oxygen uptake", "setting": "membrane-bound rMpAOX [4]; 1 mM activator", "value": 9.8, "unit": "times"},
      {"measurement": "Fold-change in membrane-bound rMpAOX O2 uptake", "setting": "membrane-bound rMpAOX [4]; 1 mM each, single independent measurements (Fig1a)", "value": "8.8788 and 10.5259 and 10.0722"},
      {"measurement": "Fractional velocity, %", "setting": "membrane-bound rMpAOX [4]; [activator] 0.025 mM (Fig1b)", "value": "56.6% and 57.7%"},
      {"measurement": "Fractional velocity, %", "setting": "membrane-bound rMpAOX [4]; [activator] 0.075 mM (Fig1b)", "value": "100.5% and 91.4%"},
      {"measurement": "Fractional velocity, %", "setting": "membrane-bound rMpAOX [4]; [activator] 0.175 mM (Fig1b)", "value": "125.1% and 121.5%"},
      {"measurement": "Fractional velocity, %", "setting": "membrane-bound rMpAOX [4]; [activator] 0.375 mM (Fig1b)", "value": "153.9% and 143.6%"},
      {"measurement": "Fractional velocity, %", "setting": "membrane-bound rMpAOX [4]; [activator] 0.625 mM (Fig1b)", "value": "166.3% and 158.4%"},
      {"measurement": "Fractional velocity, %", "setting": "membrane-bound rMpAOX [4]; [activator] 1.125 mM (Fig1b)", "value": "182.1% and 175.1%"},
      {"measurement": "Fractional velocity, %", "setting": "membrane-bound rMpAOX [4]; [activator] 2.125 mM (Fig1b)", "value": "186.8% and 187.9%"},
      {"measurement": "Fractional velocity, %", "setting": "membrane-bound rMpAOX [4]; [activator] 4.125 mM (Fig1b)", "value": "193.5% and 196.9%"},
      {"measurement": "Fractional velocity, %", "setting": "membrane-bound rMpAOX [4]; [activator] 6.625 mM (Fig1b)", "value": "206.9% and 200.9%"},
      {"measurement": "EC50", "setting": "membrane-bound rMpAOX [4]; membrane-bound rMpAOX, 4-parameter sigmoid fit, read-out: EC50 of rMpAOX activation", "value": 166, "unit": "µM"},
      {"measurement": "Effect on rMpAOX kinetic parameters KM and VMax", "setting": "purified rMpAOX", "value": "did not alter"},
      {"measurement": "Sensitivity of rMpAOX to GMP", "setting": "[5]", "value": "not regained"}
    ]},
    {"smiles": "O=C(Nc1cccc(Br)c1)c1cccc(F)c1", "note": "[N-(3-bromophenyl)-3-fluorobenzamide]", "values": [
      {"measurement": "Effect in plants against WBD", "setting": "[6]", "value": "protective effect"}
    ]}
  ]
}
